Columns and labels:
Septoria tritici = experiment: Action against Septoria tritici: growth inhibition in nutrient broth, microtiter plate, photometric; assay type: cell-based; settings: single active ingredient, 24° C., 72 hrs
Description: (§1) The action to be expected E for a given active ingredient combination obeys the so-called COLBY formula and can be calculated as follows (COLBY, S. R. “Calculating synergistic and antagonistic responses of herbicide combination”. Weeds, Vol. 15, pages 20-22; 1967): ppm=milligrams of active ingredient (=a.i.) per liter of spray mixture X=% action by active ingredient A) using p ppm of active ingredient Y=% action by active ingredient B) using q ppm of active ingredient. According to COLBY, the expected (additive) action of active ingredients A)+B) using p+q ppm of active ingredient is If the action actually observed (O) is greater than the expected action (E), then the action of the combination is super-additive, i.e. there is a synergistic effect. In mathematical terms, synergism corresponds to a positive value for the difference of (O-E). In the case of purely complementary addition of activities (expected activity), said difference (O-E) is zero. A negative value of said difference (O-E) signals a loss of activity compared to the expected activity. In the following examples a specific compound of formula (I) was used. Said compound of formula (I) was a mixture of the racemic syn- and anti-compound of formula (I), in a syn/anti-ratio of 9:1. Conidia of the fungus from cryogenic storage are directly mixed into nutrient broth (PDB potato dextrose broth). After placing a (DMSO) solution of the test compounds into a microtiter plate (96-well format) the nutrient broth containing the fungal spores is added. […] The fungicide interactions in the combinations are calculated according to COLBY method.

[1] = test system: Pseudocercosporella herpotrichoides var. acuformis; experiment: Action against Pseudocercosporella herpotrichoides var. acuformis (eyespot/cereals): growth inhibition in nutrient broth, microtiter plate, photometric; assay type: cell-based; settings: single active ingredient, 24° C., 72 hrs
Description: as §1

SMILES	Observed control in % (% Cobs) (Septoria tritici; 0.063 ppm [mg/L] final medium) [%]	Observed control in % (% Cobs) (Septoria tritici; 0.125 ppm [mg/L] final medium) [%]	Observed control in % (% Cobs) ([1]; 0.016 ppm [mg/L] final medium) [%]	Observed control in % (% Cobs) ([1]; 0.031 ppm [mg/L] final medium) [%]	Observed control in % (% Cobs) ([1]; 0.063 ppm [mg/L] final medium) [%]
O=C(NCCc1ncc(C(F)(F)F)cc1Cl)c1ccccc1C(F)(F)F [Cpd B-1.1, fluopyram]	6	0	1	3	14
CC(C)C1C2CCC1c1c(NC(=O)c3cn(C)nc3C(F)F)cccc12 (racemic) [Cpd I, 3-difluoromethyl-1-methyl-1H-pyrazole-4-carboxylic acid (9-isopropyl-1,2,3,4-tetrahydro-1,4-methano-naphthalen-5-yl)-amide]	26	52	12	40	67
